Measured values: patent US8865697B2, “Crystalline (6R,7R)-7-{2-(5-amino-[1,2,4] thiadiazol-3-yl)-2-[(Z)-trityloxyimino]-acetylamino}-3-[(R)-1′-tert-butoxycarbonyl-2-oxo-[1,3′]bipyrrolidinyl-(3E)-ylidenemethyl]-8-oxo-5-thia-1-aza-bicyclo[4.2.0]oct-2-ene-2-carboxylic acid benzhydryl ester; its manufacture and use” (Basilea Pharmaceutica AG, priority 2008, dated 2014)

Test: Solubility in methylene chloride
Assay type: physicochemical
Conditions: in methylene chloride at about 25° C.
Method: In methylene chloride, on the other hand, the DMSO solvate according to the present invention is readily soluble at temperatures in the range as indicated in the preceding paragraph (solubility about 70 g/l at about 25° C.). […] Therefore dissolving the DMSO solvate methylene chloride results in that the compound of formula (I) precipitates from this solution. This precipitate of the compound of formula (I) is generally again of greater purity than the DMSO solvate dissolved, and of such a particle size, that it can very fast be filtered or centrifuged off from the solvent. Furthermore, the precipitate of compound of formula (I) is generally in substantially crystalline form when precipitated from methylene chloride. More particularly, the precipitate comprises the compound of formula (I) at least partially in form of single-crystals.

Compound	solubility
CC(C)(C)OC(=O)N1CC[C@@H](N2CC/C(=C\C3=C(C(=O)OC(c4ccccc4)c4ccccc4)N4C(=O)[C@@H](NC(=O)/C(=N\OC(c5ccccc5)(c5ccccc5)c5ccccc5)c5nsc(N)n5)[C@H]4SC3)C2=O)C1 [DMSO solvate]	about 70 g/l
CC(C)(C)OC(=O)N1CC[C@@H](N2CC/C(=C\C3=C(C(=O)OC(c4ccccc4)c4ccccc4)N4C(=O)[C@@H](NC(=O)/C(=N\OC(c5ccccc5)(c5ccccc5)c5ccccc5)c5nsc(N)n5)[C@H]4SC3)C2=O)C1 [compound of formula (I), (6R,7R)-7-{2-(5-Amino-[1,2,4]thiadiazol-3-yl)-2-[(Z)-trityloxyimino]-acetylamino}-3-[(R)-1′-tert-butoxycarbonyl-2-oxo-[1,3′]bipyrrolidinyl-3E-ylidenemethyl]-8-oxo-5-thia-1-aza-bicyclo[4.2.0]oct-2-ene-2-carboxylic acid benzhydryl ester]	about 8 g/l
